Assay type in all cases: physicochemical
The nature of data set [1]: Stability of solvents in contact with lactic acid feed solution, gas chromatography (Example 6). To be noted: 60° C. On the procedure:
This experiment was conducted to compare the stability of two solvents, MIBK and Isoamyl alcohol in contact with the lactic acid feed solution as prepared in example 1. For each solvent a closed glass reactor was filled with 20 g of solvent and 20 g of the lactic acid feed solution, put in an oven to maintain a temperature of 60° C. and shaken continuously.
After 3 hrs, 24 hrs (1 day) and 168 hrs (1 week) the shaking was stopped for 1 hour to allow the phases to settle, a sample was taken from the solvent top layer, and the composition of the solvent top layer analyzed by gas chromatography.

Data set [2] in a line: MIBK solubility in aqueous MgCl2 solution, gas chromatography (Example 8). The settings on record: aqueous phase. The protocol: Hereafter, the stirring is stopped, the phases were allowed to separate and a sample was taken from the aqueous bottom phase. The concentration of MIBK in this sample was determined by gas chromatography.
Data set [3] is described as follows: Lactic acid distribution ratio MIBK/aqueous MgCl2 solution (Example 7). The settings on record: initial lactic acid 20 wt %. The source says: Forward extraction and back extraction as used in the method of the invention are based on the difference in solubility of the lactic acid in water and the organic solvent at different temperatures. The solubility of a compound in one solvent relative to another solvent can be expressed in terms of the distribution ratio (DR). This ratio gives an indication how a compound will be distributed over the aqueous phase (e.g. the aqueous mixture) and the organic phase (e.g. the organic liquid) in a two-phase system at equilibrium. The distribution ratio may be defined as the ratio of the lactic acid concentration dissolved in the organic phase ([lactic acid]organic) over the concentration of the lactic acid dissolved in water ([lactic acid]water) provided that the two phases are in equilibrium with each other: DR=[lactic acid]organic/[lactic acid]water(1)
The resulting two phase system was stirred at 20° C. or 60° C. for 30 minutes with sufficient speed to ensure that both phases are well dispersed. Hereafter, the stirring is stopped, the phases were allowed to separate and samples were taken from both phases. The concentration of lactic acid (wt %) in these samples was determined by potentiometric titration. Hereafter the distribution ratio was calculated as the ratio of the lactic acid concentration (wt %) in the MIBK organic solvent phase divided by the lactic acid concentration (wt %) in the aqueous phase.

Experimental findings from patent US10017451B2, “Lactic acid extraction” (PURAC BIOCHEM BV, priority 2011, dated 2018) are described below.

Turning to `CC(=O)CC(C)C` [MIBK, methyl-isobutyl-ketone], in data set [1] (after 168 hrs, GC of solvent top layer), the “changes in purity of the solvent” value was “no changes in the purity of the MIBK could be detected”. In addition, the MIBK solubility in data set [2] (MgCl2 0 wt %, 20° C.) came to 1.8 wt %; in data set [2] (MgCl2 0 wt %, 60° C.), 1.4 wt %; in data set [2] (MgCl2 15 wt %, 20° C.) it was 0.48 wt %; in data set [2] (MgCl2 15 wt %, 60° C.) it was 0.20 wt %; in data set [2] (MgCl2 30 wt %, 20° C.), 0.17 wt %; in data set [2] (MgCl2 30 wt %, 60° C.) it was 0.11 wt %.

In the case of `CC(C)CCO` [isoamyl alcohol], in data set [1] (24 hrs and 168 hrs samples), the isoamyllactate concentration came to 22.5 area %. Further, the isoamyllactate formed in data set [1] (after 3 hrs, GC of solvent top layer) stood at 14.6 area %.

As for `CC(O)C(=O)O` (stereo not drawn) [lactic acid], the “Lactic acid distribution ratio” value in data set [3] (MgCl2 0 wt %, 20° C.) is listed as 0.16 wt %/wt %; in data set [3] (MgCl2 0 wt %, 60° C.), 0.19 wt %/wt %; in data set [3] (MgCl2 10.5 wt %, 20° C.), 0.33 wt %/wt %; in data set [3] (MgCl2 10.5 wt %, 60° C.), 0.37 wt %/wt %; in data set [3] (MgCl2 16.0 wt %, 20° C.), 0.49 wt %/wt %; in data set [3] (MgCl2 16.0 wt %, 60° C.), 0.56 wt %/wt %.
